Patent US10167262B2, “Herbicidal substituted 3-arylpyrazoles” (FMC CORPORATION, priority 2014, dated 2019)

How the values were obtained:
Experiment in all cases: Test E pre-/postemergence greenhouse test, plant response rating 0-100
Format in all cases: in vivo
[1] = tested on: sandbur (southern sandbur, Cenchrus echinatus); settings: scale 0 to 100; for Sandbur plant response rating: Preemergence
Summary of the method: (§1)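 Each species was tested both preemergence, with chemicals sprayed onto freshly planted silt loam, and postemergence, on plants 2 to 18 cm tall in a peat-based medium; the vehicle was a non-phytotoxic solvent mixture with surfactant. After 14 to 21 days in the greenhouse, growth was visually compared with controls and scored 0–100.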

[2] = tested on: Brazilian crabgrass (Digitaria horizontalis); settings: scale 0 to 100; for Crabgrass, Brazil plant response rating: Preemergence
Summary of the method: as §1

soybean (Glycine max) = settings: scale 0 to 100; for Soybean plant response rating: Preemergence
Summary of the method: as §1

corn (Zea mays) = settings: scale 0 to 100; for Corn plant response rating: Preemergence
Summary of the method: as §1

[3] = tested on: barnyardgrass (Echinochloa crus-galli); settings: scale 0 to 100; for Barnyardgrass plant response rating: Preemergence
Summary of the method: as §1

[4] = tested on: fall panicum (Panicum dichotomiflorum); settings: scale 0 to 100; for Panicum, Fall plant response rating: Preemergence
Summary of the method: as §1

[5] = tested on: arrowleaf sida (Sida rhombifolia); settings: for Arrowleaf Sida plant response rating: Preemergence
Summary of the method: as §1

[6] = tested on: hairy beggarticks (Bidens pilosa); settings: scale 0 to 100; for Beggarticks plant response rating: Preemergence
Summary of the method: as §1

[7] = tested on: palmer pigweed (Amaranthus palmeri); settings: scale 0 to 100; for Pigweed, Palmer plant response rating: Preemergence
Summary of the method: as §1

[8] = tested on: waterhemp (common waterhemp, Amaranthus rudis); settings: scale 0 to 100; for Waterhemp plant response rating: Preemergence
Summary of the method: as §1

[9] = tested on: wild poinsettia (Euphorbia heterophylla); settings: scale 0 to 100; for Poinsettia, Wild plant response rating: Preemergence
Summary of the method: as §1

Structure (SMILES): C#CCn1cc(C(=O)c2ccccc2)c(-c2cc(Cl)cc(Cl)c2)n1 [Compound 39, [3-(3,5-dichlorophenyl)-1-(2-propyn-1-yl)-1H-pyrazol-4-yl]phenylmethanone]
- pest or weed control at 31 g/ha ([1]; Cenchrus echinatus, post-emergence, Postemergence, 31 g ai/ha): 0%
- pest or weed control at 62 g/ha ([1]; Cenchrus echinatus, post-emergence, Postemergence, 62 g ai/ha): 0%
- pest or weed control at 125 g/ha ([1]; Cenchrus echinatus, post-emergence, Postemergence, 125 g ai/ha): 0%
- pest or weed control at 250 g/ha ([1]; Cenchrus echinatus, post-emergence, Postemergence, 250 g ai/ha): 0%
- pest or weed control at 500 g/ha ([1]; Cenchrus echinatus, post-emergence, Postemergence, 500 g ai/ha): 0%
- Sandbur plant response rating ([1]; 62 g ai/ha): 0
- Sandbur plant response rating ([1]; 125 g ai/ha): 0
- Sandbur plant response rating ([1]; 250 g ai/ha): 0
- Sandbur plant response rating ([1]; 500 g ai/ha): 0
- pest or weed control at 31 g/ha ([2]; Digitaria horizontalis, post-emergence, Postemergence, 31 g ai/ha, read-out: Plant response rating, Crabgrass, Brazil): 0%
- pest or weed control at 62 g/ha ([2]; Digitaria horizontalis, post-emergence, Postemergence, 62 g ai/ha, read-out: Plant response rating, Crabgrass, Brazil): 0%
- pest or weed control at 125 g/ha ([2]; Digitaria horizontalis, post-emergence, Postemergence, 125 g ai/ha, read-out: Plant response rating, Crabgrass, Brazil): 0%
- pest or weed control at 250 g/ha ([2]; Digitaria horizontalis, post-emergence, Postemergence, 250 g ai/ha, read-out: Plant response rating, Crabgrass, Brazil): 0%
- pest or weed control at 500 g/ha ([2]; Digitaria horizontalis, post-emergence, Postemergence, 500 g ai/ha, read-out: Plant response rating, Crabgrass, Brazil): 5%
- Crabgrass, Brazil plant response rating ([2]; 62 g ai/ha): 0
- Crabgrass, Brazil plant response rating ([2]; 125 g ai/ha): 0
- Crabgrass, Brazil plant response rating ([2]; 250 g ai/ha): 0
- Crabgrass, Brazil plant response rating ([2]; 500 g ai/ha): 0
- plant injury at 31 g/ha (soybean (Glycine max); Glycine max, post-emergence, Postemergence, 31 g ai/ha): 0%
- plant injury at 62 g/ha (soybean (Glycine max); Glycine max, post-emergence, Postemergence, 62 g ai/ha): 0%
- plant injury at 125 g/ha (soybean (Glycine max); Glycine max, post-emergence, Postemergence, 125 g ai/ha): 0%
- plant injury at 250 g/ha (soybean (Glycine max); Glycine max, post-emergence, Postemergence, 250 g ai/ha): 10%
- plant injury at 500 g/ha (soybean (Glycine max); Glycine max, post-emergence, Postemergence, 500 g ai/ha): 20%
- Soybean plant response rating (soybean (Glycine max); 62 g ai/ha): 0
- Soybean plant response rating (soybean (Glycine max); 125 g ai/ha): 0
- Soybean plant response rating (soybean (Glycine max); 250 g ai/ha): 0
- Soybean plant response rating (soybean (Glycine max); 500 g ai/ha): 0
- Corn plant response rating (corn (Zea mays); 62 g ai/ha): 0
- Corn plant response rating (corn (Zea mays); 125 g ai/ha): 0
- Corn plant response rating (corn (Zea mays); 250 g ai/ha): 0
- Corn plant response rating (corn (Zea mays); 500 g ai/ha): 0
- Corn plant response rating (crop injury, 0 = no effect, 100 = complete kill) at 31 g/ha (corn (Zea mays); Zea mays, post-emergence, Postemergence, 31 g ai/ha): 0%
- Corn plant response rating (crop injury, 0 = no effect, 100 = complete kill) at 62 g/ha (corn (Zea mays); Zea mays, post-emergence, Postemergence, 62 g ai/ha): 0%
- Corn plant response rating (crop injury, 0 = no effect, 100 = complete kill) at 125 g/ha (corn (Zea mays); Zea mays, post-emergence, Postemergence, 125 g ai/ha): 0%
- Corn plant response rating (crop injury, 0 = no effect, 100 = complete kill) at 250 g/ha (corn (Zea mays); Zea mays, post-emergence, Postemergence, 250 g ai/ha): 0%
- Corn plant response rating (crop injury, 0 = no effect, 100 = complete kill) at 500 g/ha (corn (Zea mays); Zea mays, post-emergence, Postemergence, 500 g ai/ha): 0%
- pest or weed control at 31 g/ha ([3]; Echinochloa crus-galli, post-emergence, Postemergence, 31 g ai/ha): 0%
- pest or weed control at 62 g/ha ([3]; Echinochloa crus-galli, post-emergence, Postemergence, 62 g ai/ha): 0%
- pest or weed control at 125 g/ha ([3]; Echinochloa crus-galli, post-emergence, Postemergence, 125 g ai/ha): 0%
- pest or weed control at 250 g/ha ([3]; Echinochloa crus-galli, post-emergence, Postemergence, 250 g ai/ha): 0%
- pest or weed control at 500 g/ha ([3]; Echinochloa crus-galli, post-emergence, Postemergence, 500 g ai/ha): 10%
- Barnyardgrass plant response rating ([3]; 62 g ai/ha): 0
- Barnyardgrass plant response rating ([3]; 125 g ai/ha): 0
- Barnyardgrass plant response rating ([3]; 250 g ai/ha): 0
- Barnyardgrass plant response rating ([3]; 500 g ai/ha): 0
- pest or weed control at 31 g/ha ([4]; Panicum dichotomiflorum, post-emergence, Postemergence, 31 g ai/ha): 0%
- pest or weed control at 62 g/ha ([4]; Panicum dichotomiflorum, post-emergence, Postemergence, 62 g ai/ha): 0%
- pest or weed control at 125 g/ha ([4]; Panicum dichotomiflorum, post-emergence, Postemergence, 125 g ai/ha): 0%
- pest or weed control at 250 g/ha ([4]; Panicum dichotomiflorum, post-emergence, Postemergence, 250 g ai/ha): 0%
- pest or weed control at 500 g/ha ([4]; Panicum dichotomiflorum, post-emergence, Postemergence, 500 g ai/ha): 0%
- Panicum, Fall plant response rating ([4]; 62 g ai/ha): 0
- Panicum, Fall plant response rating ([4]; 250 g ai/ha): 0
- Arrowleaf Sida plant response rating ([5]; 62 g ai/ha, scale 0 to 100): 0
- Arrowleaf Sida plant response rating ([5]; 125 g ai/ha, scale 0 to 100): 90
- Arrowleaf Sida plant response rating ([5]; 250 g ai/ha, scale 0 to 100): 95
- Arrowleaf Sida plant response rating ([5]; 500 g ai/ha, scale 0 to 100): 95
- pest or weed control at 31 g/ha ([5]; Sida rhombifolia, post-emergence, Postemergence, 31 g ai/ha, scale 0 to 100): 75%
- pest or weed control at 62 g/ha ([5]; Sida rhombifolia, post-emergence, Postemergence, 62 g ai/ha, scale 0 to 100): 80%
- pest or weed control at 125 g/ha ([5]; Sida rhombifolia, post-emergence, Postemergence, 125 g ai/ha, scale 0 to 100): 85%
- pest or weed control at 250 g/ha ([5]; Sida rhombifolia, post-emergence, Postemergence, 250 g ai/ha, scale 0 to 100): 90%
- pest or weed control at 500 g/ha ([5]; Sida rhombifolia, post-emergence, Postemergence, 500 g ai/ha, scale 0 to 100 (0 no effect, 100 complete control)): 90%
- pest or weed control at 31 g/ha ([6]; Bidens pilosa, post-emergence, Postemergence, 31 g ai/ha): 80%
- pest or weed control at 62 g/ha ([6]; Bidens pilosa, post-emergence, Postemergence, 62 g ai/ha): 85%
- pest or weed control at 125 g/ha ([6]; Bidens pilosa, post-emergence, Postemergence, 125 g ai/ha): 90%
- pest or weed control at 250 g/ha ([6]; Bidens pilosa, post-emergence, Postemergence, 250 g ai/ha): 95%
- pest or weed control at 500 g/ha ([6]; Bidens pilosa, post-emergence, Postemergence, 500 g ai/ha): 95%
- Beggarticks plant response rating ([6]; 62 g ai/ha): 0
- Beggarticks plant response rating ([6]; 125 g ai/ha): 0
- Beggarticks plant response rating ([6]; 250 g ai/ha): 0
- Beggarticks plant response rating ([6]; 500 g ai/ha): 0
- pest or weed control at 31 g/ha ([7]; Amaranthus palmeri, post-emergence, Postemergence, 31 g ai/ha): 70%
- pest or weed control at 62 g/ha ([7]; Amaranthus palmeri, post-emergence, Postemergence, 62 g ai/ha): 80%
- pest or weed control at 125 g/ha ([7]; Amaranthus palmeri, post-emergence, Postemergence, 125 g ai/ha): 80%
- pest or weed control at 250 g/ha ([7]; Amaranthus palmeri, post-emergence, Postemergence, 250 g ai/ha): 85%
- pest or weed control at 500 g/ha ([7]; Amaranthus palmeri, post-emergence, Postemergence, 500 g ai/ha): 98%
- Pigweed, Palmer plant response rating ([7]; 62 g ai/ha): 20
- Pigweed, Palmer plant response rating ([7]; 125 g ai/ha): 50
- Pigweed, Palmer plant response rating ([7]; 250 g ai/ha): 90
- Pigweed, Palmer plant response rating ([7]; 500 g ai/ha): 85
- pest or weed control at 31 g/ha ([8]; Amaranthus tuberculatus, post-emergence, Postemergence, 31 g ai/ha): 80%
- pest or weed control at 125 g/ha ([8]; Amaranthus tuberculatus, post-emergence, Postemergence, 125 g ai/ha): 90%
- pest or weed control at 250 g/ha ([8]; Amaranthus tuberculatus, post-emergence, Postemergence, 250 g ai/ha): 95%
- pest or weed control at 500 g/ha ([8]; Amaranthus tuberculatus, post-emergence, Postemergence, 500 g ai/ha): 98%
- Waterhemp plant response rating ([8]; 62 g ai/ha): 85
- Waterhemp plant response rating ([8]; 125 g ai/ha): 95
- Waterhemp plant response rating ([8]; 250 g ai/ha): 100
- Waterhemp plant response rating ([8]; 500 g ai/ha): 100
- pest or weed control at 31 g/ha ([9]; Euphorbia heterophylla, post-emergence, Postemergence, 31 g ai/ha, read-out: Plant response rating, Poinsettia, Wild): 0%
- pest or weed control at 62 g/ha ([9]; Euphorbia heterophylla, post-emergence, Postemergence, 62 g ai/ha, read-out: Plant response rating, Poinsettia, Wild): 0%
- pest or weed control at 125 g/ha ([9]; Euphorbia heterophylla, post-emergence, Postemergence, 125 g ai/ha, read-out: Plant response rating, Poinsettia, Wild): 0%
- pest or weed control at 250 g/ha ([9]; Euphorbia heterophylla, post-emergence, Postemergence, 250 g ai/ha, read-out: Plant response rating, Poinsettia, Wild): 0%
- pest or weed control at 500 g/ha ([9]; Euphorbia heterophylla, post-emergence, Postemergence, 500 g ai/ha, read-out: Plant response rating, Poinsettia, Wild): 10%
- Poinsettia, Wild plant response rating ([9]; 62 g ai/ha): 0
- Poinsettia, Wild plant response rating ([9]; 125 g ai/ha): 0
- Poinsettia, Wild plant response rating ([9]; 250 g ai/ha): 0
- Poinsettia, Wild plant response rating ([9]; 500 g ai/ha): 0
